Experimental data: article doi:10.1101/2025.01.06.631558v1 (biorxiv, 2025)

Assays:
[1] = molecular target: T1, CbPrpB (Coxiella burnetii, UniProt Q83DG5); assay: biochemical
T1 construct: gene prpB

[2] = molecular target: T1, CbPrpB

T1 sequence (Q83DG5 1-290): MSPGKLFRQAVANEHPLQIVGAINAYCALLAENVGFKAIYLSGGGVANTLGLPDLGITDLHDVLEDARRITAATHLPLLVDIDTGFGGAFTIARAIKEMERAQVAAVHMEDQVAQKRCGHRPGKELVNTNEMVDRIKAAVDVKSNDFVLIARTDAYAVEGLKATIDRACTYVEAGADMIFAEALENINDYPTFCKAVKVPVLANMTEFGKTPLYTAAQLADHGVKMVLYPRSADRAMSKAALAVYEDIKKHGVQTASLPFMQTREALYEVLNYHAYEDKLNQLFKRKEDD

Row | Compound | Ki [1] | X-ray crystal structure, soak [2]
1 | O=C(O)C[C@H](C(=O)O)[C@@H](O)C(=O)O [isocitrate] | 6 ± 2 mM | –
2 | CC(=O)C(=O)O [pyruvate] | – | We first determined the structure of product-bound CbPrpB
3 | O=C(O)CCC(=O)O [succinate] | – | We first determined the structure of product-bound CbPrpB
